Patent US11446267B2, “Nanoparticle compositions, methods of fabrication, and use for drug delivery” (DIGNITY HEALTH, priority 2017, dated 2022)

Legend:
ALS patients = conditions: subset of ALS patients, phase III study; cited from earlier work
[1] = in vivo; cited from earlier work
primary motor neurons = conditions: oxidative injury and excitotoxicity; cited from earlier work
RARβ = target: T1, RARβ (Homo sapiens, UniProt P10826); conditions: cited from earlier work
T1 sequence (P10826 1-455): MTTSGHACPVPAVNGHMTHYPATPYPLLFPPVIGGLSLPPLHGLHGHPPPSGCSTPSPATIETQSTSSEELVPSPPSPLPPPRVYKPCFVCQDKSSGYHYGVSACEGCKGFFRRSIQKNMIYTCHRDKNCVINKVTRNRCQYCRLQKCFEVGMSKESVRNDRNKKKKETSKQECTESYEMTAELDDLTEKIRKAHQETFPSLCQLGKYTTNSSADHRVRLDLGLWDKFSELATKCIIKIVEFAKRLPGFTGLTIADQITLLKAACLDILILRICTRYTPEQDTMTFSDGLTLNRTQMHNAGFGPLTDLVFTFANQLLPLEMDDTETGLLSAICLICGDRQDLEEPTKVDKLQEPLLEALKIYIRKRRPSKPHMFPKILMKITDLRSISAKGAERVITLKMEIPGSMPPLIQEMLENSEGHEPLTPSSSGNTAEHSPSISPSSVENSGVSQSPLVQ

[2] = cited from earlier work
MAPK signaling = MAPK signaling after direct injection into the striatum; type: in vivo; conditions: injected directly into the striatum of healthy mice
RARα = target: T2, RARα (Homo sapiens, UniProt P10276); conditions: cited from earlier work
T2 sequence (P10276 1-462): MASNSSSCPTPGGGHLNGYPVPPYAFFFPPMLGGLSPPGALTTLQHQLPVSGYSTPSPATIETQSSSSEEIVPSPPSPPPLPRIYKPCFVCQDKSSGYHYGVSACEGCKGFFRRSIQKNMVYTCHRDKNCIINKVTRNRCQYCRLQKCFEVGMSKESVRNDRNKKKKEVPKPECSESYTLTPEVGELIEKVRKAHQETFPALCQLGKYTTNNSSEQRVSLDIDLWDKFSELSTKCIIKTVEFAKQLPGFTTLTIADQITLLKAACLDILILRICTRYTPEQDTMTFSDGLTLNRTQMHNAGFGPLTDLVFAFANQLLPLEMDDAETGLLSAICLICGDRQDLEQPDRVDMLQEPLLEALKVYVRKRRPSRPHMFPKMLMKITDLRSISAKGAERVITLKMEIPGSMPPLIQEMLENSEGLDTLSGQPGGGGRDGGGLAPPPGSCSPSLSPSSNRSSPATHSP

RXRs = conditions: cited from earlier work
[3] = chronic administration; cited from earlier work

With `CC1=NN(c2ccccc2)C(=O)C1` [Edaravone] as the molecule, how does the disease progression (ALS patients) read?
Its disease progression is “reduce disease progression”.

Which “clearance from the plasma” value [1] does the source give for `COc1ccc(-c2ccc3cc(C(=O)O)ccc3c2)cc1C12CC3CC(CC(C3)C1)C2` [Adapalene] here?
Its value is “rapidly cleared from the plasma”.

What about the cell death (primary motor neurons) of the same molecule?
The cell death was “reduced cell death”.

And the AC50 (RARβ)?
The AC50 was 2.2 nM.

And the solubility in water [2]?
The solubility in water was “less than 1 μg/ml”.

And the “activation of MAPK signaling” value (MAPK signaling)?
Its value is “equivalently activated MAPK signaling”.

What about the AC50 (RARα) of the same molecule?
Its AC50 is 9.2 nM.

What about the “interaction with RXRs” value (RXRs) of the same molecule?
The value was “does not interact”.

Which “motor impairments, lifespan, neuroprotection” value [3] does the source give for `C=C(c1ccc(C(=O)O)cc1)c1cc2c(cc1C)C(C)(C)CCC2(C)C` [bexarotene] here?
The value was “reduced motor impairments, increased lifespan and was neuroprotective”.
